Experimental data published in patent publication US8293240B2, “Method of treating drug-resistant cancer” (The Regents of the University of Colorado, priority 2004, dated 2012).

Tests used:
[1] = tested on: human leukemia RU937 cells; assay: mitochondrial membrane potential (MitoTracker), RU937; format: cell-based; details: RU937, 24 hours of incubation, FIG. 13
Protocol: Flow Cytometry. Cells were harvested, counted, and resuspended at 10^6 cells/100 μl of PBS containing 2.5% fetal calf serum in preparation for flow cytometric analysis. Cells were stained for intracellular H202 using 6-carboxy-2′,7′-dichlorodihydrofluorescein diacetate (DCF-DA, Molecular Probes, Eugene, Oreg.). Briefly, cells were incubated at 37° with 1 mM DCF-DA for 20 minutes, washed twice in PBS containing 2.5% fetal calf serum and analyzed flow cytometrically. Mitochondrial membrane potential was assessed using Mitotracker Red (CM-H2XROS, Molecular Probes, Eugene, Oreg.). The cells were resuspended in PBS containing 2.5% fetal calf serum containing a final concentration of 0.5 micromolar Mitotracker dye. The cells were incubated at 37° for 20 minutes, washed twice in PBS containing 2.5% fetal calf serum and analyzed flow cytometrically. Data were acquired on a Coulter Elite Epics or Excel flow cytometer (Coulter, Hialeah, Fla.) and analyzed with CellQuest software, (Becton Dickinson, San Jose, Calif.). […] Each sample population was classified for cell size (forward scatter) and complexity (side scatter), gated on a population of interest and evaluated using 5,000 cells. […]
The effects of etomoxir on human leukemia RU937 cells was determined. […]

B16F1 melanoma cells [2] = assay: cell surface Fas (CD95) expression on B16F1 melanoma cells; format: cell-based, mouse; details: 48 hours
Protocol: (§1) Cell Surface Staining. Non-permeabilized cells were stained with antibodies to the cell surface receptors Fas (CD95) (Pharmingen) or with antibodies to uncoupling proteins (anti-UCP2 antibody) (Alpha Diagnostic International). Antibodies for both the isotype control and actual stain were added to the cell suspension, mixed, and then placed on ice for and incubation of 25 minutes in the dark. Subsequently the cells were centrifuged at 300×g for 5 minutes and the supernatant removed. The cells were washed one time with 100 μL of PBS/2.5% FBS and then transferred into flow cyotmetric tubes containing 500 μL of PBS/2.5% FBS for analysis.
B16F1 melanoma cells were cultured at a concentration of 0.5 to 1 million cells per ml. Cells were harvested and analyzed by flow cytometry. Dot plots are shown in FIG. 15 as functions of live versus dead cells. Each dot on the dot plot represents one cell. Five thousand cells were assessed for forward scatter (FS), as a function of cell size, versus side scatter (SS), as a function of cellular granularity. […]
Referring to FIGS. 17 and 18, B16F1 melanoma cells of Example 12 were untreated or treated with etomoxir at the indicated concentrations for 48 hours. Cells were harvested, stained with fluorochrome conjugated anti-Fas antibody (Pharmingen) and analyzed by flow cytometry.

[3] = tested on: drug sensitive L1210 cells; assay: cell-surface Fas expression by flow cytometry, L1210; format: cell-based
Protocol: as §1
Geometric Mean Fluorescence. When analyzing data on Cell Quest software, a geometric mean value will be given for each histogram plotted. Once the stained sample was plotted against the control (isotype or unstained), geometric mean fluorescence values were obtained for both histogram peaks. The stained control sample value was subtracted from sample to identify the actual fluorescence of the stained sample over that of the control.
Drug sensitive L1210 cells and drug resistant L1210/DDP cells were cultured with etomoxir for 24 hours (Tx indicates treatment with etomoxir). The level of cell-surface Fas was determined using fluorochrome conjugated anti-Fas antibodies and flow cytometry. The Fas levels are measured relative to a control for staining artifacts. […]

B16F1 melanoma cells [4] = assay: mitochondrial membrane potential (Mitotracker Red) in B16F1 melanoma cells; format: cell-based, mouse; details: B16F1, 48 hours, FIG. 20
Protocol: (§2) Metabolic Activity Assay. Cells were prepared as previously described. The specific metabolic dye was added and mixed into the cell suspension. This plate was then placed into the 37° incubator for a 20-minute incubation. After incubation, the cells were centrifuged at 300×g for 5 minutes, and the supernatant was removed. The cells were then washed once with PBS/2.5% FBS and transferred into flow cytometric tubes containing 500 μL of PBS/2.5% FBS for analysis.
MitoTracker Red CM-H2XROS (Molecular Probes). One vial of MitoTracker Red provides 10 tests and contains 50 μg. This is unstable and can't be stored. Therefore, when each vial was opened, 43 μL of Dimethysulfoxide (DMSO) were added. […]
(§3) B16F1 melanoma cells were cultured at a concentration of 0.5 to 1 million cells per ml. Cells were harvested and analyzed by flow cytometry. […] Five thousand cells were assessed for forward scatter (FS), as a function of cell size, versus side scatter (SS), as a function of cellular granularity. […]
B16F1 melanoma cells of Example 12 were untreated or treated with etomoxir at the indicated concentrations for 48 hours. Cells were harvested, stained with Mitotracker Red (Molecular Probes) as described in Materials and Methods, and analyzed by flow cytometry. The value of Mitotracker Red was then calculated as described in Materials and Methods.

[5] = tested on: RD cells (rhabdomyosarcoma cells-not drug resistant); assay: percent death of RD cells (flow cytometry, live versus dead); format: cell-based
Protocol: The cells were cultured at a concentration of 0.5 to 1 million cells per ml. Cells were untreated or treated with or 2-deoxy-D-glucose and/or etomoxir and/or antibodies to UCP2 and used at dilutions or concentrations as indicated on the figure. The cells were cultured in the presence or absence of etomoxir at 100 micrograms/ml for 24 hours followed by treatment with antibody as indicated for an additional 24 or 48 hours (i.e. totals of 48 hours or 72 hours respectively). Cells were harvested and analyzed by flow cytometry. Each dot on the dot plot represents one cell. Five thousand cells were assessed for forward scatter (FS), as a function of cell size, versus side scatter (SS), as a function of cellular granularity. The upper elipse represents live cells by these criterion and the lower elipse in each dot plot represents the dead cells.
Gating is a tool provided by Cell Quest software and allows for the analysis of a certain population of cells. Gating around both the live and dead cell populations gave a percent of the cell numbers that was in each population. After the gates were drawn, a percent value of dead cells was calculated by taking the number of dead cells divided by the number of total cells and multiplying by one hundred.
Referring to FIGS. 29 and 30, RD cells (rhabdomyosarcoma cells-not drug resistant), cultured as described above under “Materials and Methods” were untreated or treated with etomoxir, with 2-deoxy-D-glucose, or with a combination of etomoxir and 2-deoxy-D-glucose, at concentrations indicated in FIG. 29 for 24 hours. Cells were harvested and analyzed by flow cytometry.
Referring to FIGS. 33 and 34, RD cells, cultured as described in Example 22, were untreated or treated with etomoxir, with 2-deoxy-D-glucose, or with a combination of etomoxir and 2-deoxy-D-glucose, at concentrations indicated in FIG. 33 for 48 hours. Cells were harvested and analyzed by flow cytometry.
Referring to FIGS. 37 and 38, RD cells, cultured as described in Example 22, were treated with anti-UCP2 antibody and otherwise untreated or treated simultaneously with etomoxir, 2-deoxy-D-glucose, or both, at concentrations indicated in FIG. 37 for 48 hours. Cells were harvested and analyzed by flow cytometry.

B16F1 melanoma cells [6] = assay: intracellular reactive intermediates (DCFDA) in B16F1 melanoma cells; format: cell-based, mouse; details: B16F1, 48 hours, FIG. 19
Protocol: as §2
5-(and -6)-Chloromethyl-2′,7′-dichlorodihydrofluorescein diacetate (CMH2DCFDA) (Molecular Probes). One vial of DCFda provides 10 tests and contains 50 μg. This is unstable and can't be stored. Therefore, each vial was opened and 43 μL of DMSO was added. […]
as §3
B16F1 melanoma cells of Example 12 were untreated or treated with etomoxir at the indicated concentrations for 48 hours. Cells were harvested, stained with DCFDA as described in Materials and Methods, and analyzed by flow cytometry. The value of DCFDA was then calculated as described in Materials and Methods.

CCOC(=O)C1(CCCCCCOc2ccc(Cl)cc2)CO1 (stereo not drawn) [etomoxir, 2-(6-(4-chlorophenoxy)-hexyl)-oxirane-2-carboxylic acid ethyl ester]
mitochondrial membrane potential (MitoTracker) [1]: increased the levels of mitochondrial membrane potential
cell surface Fas expression (B16F1 melanoma cells [2]; B16F1 dead cell population, FIG. 18): dose dependent increase in cell surface Fas expression
cell surface Fas expression (B16F1 melanoma cells [2]; B16F1 live cell population, FIG. 17): dose dependent increase in cell surface Fas expression
cell-surface Fas expression ([3]; L1210, cultured with etomoxir for 24 hours): significant increases in cell surface Fas
Fas expression, combination with methotrexate ([3]; L1210, etomoxir with methotrexate, FIG. 8): increases the methotrexate-induced increases in Fas
mitochondrial membrane potential as measured by Mitotracker Red (B16F1 melanoma cells [4]): increase in mitochondrial membrane potential
percent of cell deaths ([5]; RD cells after 24 hours): 57%
percent of cell deaths ([5]; RD cells after 48 hours): 64%
reactive oxygen species as measured by DCFDA (B16F1 melanoma cells [6]): dose dependent increase
